Assay results as given in ChEMBL document CHEMBL2095176, “GSK Tuberculosis Screening Data”.
Converted amounts (≈) assume the structure as drawn.

Test system: Mycobacterium tuberculosis variant bovis BCG
Assay: microbe, parasite or virus in culture
Format: functional

Compound | MIC90 [µM]
Br.Cc1cc(C)cc(OCCCON2C(=N)N=C(N)NC2(C)C)c1 | 7
Cc1ccc(Cl)cc1Oc1ccncc1CNc1ccccc1S(C)(=O)=O | 7.1 (≈ 2.86 µg/mL)
O=C(Cc1ccc(F)cc1)Nc1nc(-c2ccccn2)cs1 | 8.9 (≈ 2.79 µg/mL)
Cc1csc(NC(=O)CSc2nc(C)c(C)n2Cc2ccc(Cl)cc2)c1C#N | 0.9 (≈ 0.388 µg/mL)
CC(=O)N1CCc2cc3nc(C)cc(C)c3cc21 | 3.5 (≈ 0.841 µg/mL)
Br.CC1(C)NC(N)=NC(=N)N1OCCCOc1ccc(Cl)cc1Cl | 4.5
O=C(CSCc1ccc(Cl)cc1)NNC(=O)c1ccncc1 | 9.7 (≈ 3.26 µg/mL)
CCCCc1cc(OC)c(C(=O)Nc2cccc3c2CCN(C)C3)cc1Cl | 6.4 (≈ 2.48 µg/mL)
COc1ccc(N(C(=O)CNc2ccccc2Nc2ccc(Cl)cc2)C(C)C)cc1 | 2.6 (≈ 1.1 µg/mL)
CCCc1cc(-c2nc(-c3ccc(OC)c(OC)c3)cs2)ccn1 | 6.7 (≈ 2.28 µg/mL)
C=CCNCCS(=O)(=O)c1cccc(Nc2ccc(-c3cccc(F)c3)cn2)c1 | 3.1 (≈ 1.28 µg/mL)
CCOC(=O)c1c(-c2ccccc2)oc2ccc(O)c(CN3CCCC3)c12 | 3.9 (≈ 1.43 µg/mL)
Oc1ccc(Nc2ccccc2Nc2ccccc2)cc1Cl | 7.7 (≈ 2.39 µg/mL)
COCc1nc(N2CCNCC2)c2c(C)nn(-c3ccc(C)cc3)c2n1 | 3 (≈ 1.06 µg/mL)
Fc1ccc2nc(Nc3nc(-c4ccccn4)cs3)sc2c1 | 1 (≈ 0.328 µg/mL)
Nc1cccnc1Nc1ccc(C(F)(F)F)cc1 | 3.7 (≈ 0.937 µg/mL)
COc1ccc(CCNC(=O)c2cc(-c3ccc(OC)c(OC)c3)on2)cc1OC | 4.2 (≈ 1.73 µg/mL)
COc1cccc(Nc2cc(C(C)(C)C)nc(-c3ccccn3)n2)c1 | 3.6 (≈ 1.2 µg/mL)
O=C(COc1ccc(Br)cc1)NNC(=O)c1cccs1 | 2.4 (≈ 0.853 µg/mL)
COC(=O)c1c(NC(=O)c2c(F)c(F)c(F)c(F)c2F)sc2c1CCCCC2 | 2 (≈ 0.839 µg/mL)
Cc1n[nH]c(C)c1S(=O)(=O)NCc1nc(NCCCc2ccccc2)c2ccccc2n1 | 5.9 (≈ 2.66 µg/mL)

Compound | MIC90 [µM]
COCCN(C)Cc1ccc(-c2cc(-c3c[nH]nc3-c3cccc(C)n3)ccn2)cc1 | 6 (≈ 2.48 µg/mL)
COc1cc(Nc2ccccc2)ccc1NS(=O)(=O)c1ccc(-c2cc(C(F)(F)F)n(C)n2)s1 | 2.8 (≈ 1.42 µg/mL)
CCN(CC)CCCn1c(Sc2ccnc(N3CCN(c4ccncc4)CC3)n2)nnc1-c1ccco1 | 2.8 (≈ 1.46 µg/mL)
CC(=O)Nc1cc(C(=O)Nc2ccc(C3=NCCN3)cc2)ccc1C(=O)Nc1ccc(C2=NCCN2)cc1 | 1.6 (≈ 0.815 µg/mL)
O=C(O)COCC(=O)NNC(=O)c1ccncc1 | 2.3 (≈ 0.582 µg/mL)
c1ccc(Cc2nn3c(-c4ccccc4)nnc3s2)cc1 | 8.2 (≈ 2.4 µg/mL)
COc1ccccc1NC(=O)CN(Cc1ccco1)C(=O)c1cccc(-n2cnnn2)c1 | 7.7 (≈ 3.33 µg/mL)
O=C(NC1CCN(Cc2ccsc2)C1)c1sccc1-c1cccc(Cl)c1 (stereo not drawn) | 9 (≈ 3.63 µg/mL)
Cc1cc(C)cc(Oc2ncnc(N3CCCC3CN)c2C)c1 (stereo not drawn) | 7.5 (≈ 2.34 µg/mL)
O=C(NC12CC3CC(CC(C3)C1)C2)c1cc2cc(Cl)ccc2[nH]1 | 0.8 (≈ 0.263 µg/mL)
CCc1cc(=O)[nH]c(-n2nc(C)cc2NC(=O)c2cc3ccccc3o2)n1 | 3.8 (≈ 1.38 µg/mL)
COc1cc(NC(=O)c2sc(-c3ccc(Cl)cc3)cc2/N=C2/CCCCN2C)ccc1OCCN1CCCC1 | 6 (≈ 3.4 µg/mL)
CC1=NN(C(=O)c2ccncc2)C(O)(c2ccncc2)C1 (stereo not drawn) | 2.6 (≈ 0.734 µg/mL)
c1ccc(CCNc2cc(-c3ccccc3)nc3nncn23)cc1 | 8.1 (≈ 2.55 µg/mL)
O=C(/C=C/c1ccc(C(F)(F)F)cc1F)NC1CCN(c2ncccc2C(F)(F)F)CC1 | 4.2 (≈ 1.94 µg/mL)
Cc1ccc(OCC(=O)Nc2cc(C)nn2-c2nc(C)cc(O)n2)cc1 | 3.6 (≈ 1.27 µg/mL)
O=C(Nc1nc(-c2ccccn2)cs1)c1cccc(F)c1 | 2 (≈ 0.599 µg/mL)
O=C(Nc1nc(CN2CCCCC2)cs1)c1ccccc1OCc1ccc(F)cc1 | 6.2 (≈ 2.64 µg/mL)
Cc1ccc2[nH]c(C3CCCNC3)c(-c3ccncc3)c2c1 (stereo not drawn) | 8.9 (≈ 2.59 µg/mL)
O=C(Nc1ccc(C(F)(F)F)cc1)NC1CCCCC1 | 4.3 (≈ 1.23 µg/mL)
O=C(Nc1ccccc1-c1nc(Br)cs1)OCC1CCNCC1 | 8 (≈ 3.17 µg/mL)

Compound | MIC90 [µM]
CC(c1nc2ccccc2s1)N(C)C(=O)c1cccc(NC(=O)c2cccs2)c1 (stereo not drawn) | 0.3 (≈ 0.126 µg/mL)
Cc1cc(Cl)cc2nc(N3CCCNCC3)oc12 | 6.4 (≈ 1.7 µg/mL)
COc1ccc(-c2cncc(-c3cc(N4CCN(CCO)CC4)nc(-c4ccccc4)n3)c2)cc1 | 7.9 (≈ 3.69 µg/mL)
O=C(CSc1ccc(Cl)cc1)Nc1nc(-c2ccccn2)cs1 | 4.7 (≈ 1.7 µg/mL)
O=C(COc1ccc(Cl)cc1)NNC(=O)c1cccs1 | 4.2 (≈ 1.31 µg/mL)
COc1ccc(-c2ccc(Nc3cccc(S(=O)(=O)CCNCc4nccn4C)c3)nc2)cn1 | 4.3 (≈ 2.06 µg/mL)
O=C(Nc1nc(-c2ccccn2)cs1)C1(c2ccc(Cl)cc2)CC1 | 3.3 (≈ 1.17 µg/mL)
Cc1nn(Cc2ccccc2)c(Cl)c1C(=O)NC1CCCCCC1 | 3.2 (≈ 1.11 µg/mL)
Cc1ccc2c(Cl)c(C(=O)NC3=NCCS3)sc2c1 | 3.8 (≈ 1.18 µg/mL)
Cc1ccc2nc(C(F)(F)F)c(C(=O)NCc3ccco3)n2c1 | 4.9 (≈ 1.58 µg/mL)
Cc1ccc2nc(C)c(C(=O)NCc3cccs3)n2c1 | 0.5 (≈ 0.143 µg/mL)
O=C(NCc1ccc2c(c1)OCO2)c1c(C(F)(F)F)nc2ccccn12 | 3.4 (≈ 1.24 µg/mL)
O=c1cc(N2CCCNCC2)c(Cl)nn1CCCNS(=O)(=O)c1ccc(-c2ccccc2)cc1 | 4.6 (≈ 2.31 µg/mL)
CN1CCN(c2cc(-c3ccc(F)cc3)nc(-c3ccncc3)n2)CC1 | 7.9 (≈ 2.76 µg/mL)
Nc1cccnc1Nc1ccc(Cl)cc1 | 1.1 (≈ 0.242 µg/mL)
Cn1cc(-c2noc(CCN[C@H]3CC[C@H](C)CC3)n2)c2ccccc21 | 9.4 (≈ 3.18 µg/mL)
Cc1ccc(-c2nnc(NC(=O)c3cccc(F)c3)o2)cc1C | 5 (≈ 1.56 µg/mL)
FC(F)(F)c1nnc2ccc(Cl)nn12 | 6.6 (≈ 1.47 µg/mL)
CCCn1nnnc1NC(=O)c1ccc(Cl)c(Cl)c1 | 7.9 (≈ 2.37 µg/mL)
CC(C)n1ncc2c(C(=O)NCC(c3cccs3)N3CCOCC3)cc(-c3ccccc3)nc21 (stereo not drawn) | 2.5 (≈ 1.19 µg/mL)
Cn1nc(C(=O)N2CCc3sccc3C2c2ccccc2)c2ccccc2c1=O (stereo not drawn) | 2 (≈ 0.803 µg/mL)

Compound | MIC90 [µM]
O=C(Nc1ccc(Oc2ccccc2)cc1)NC1CCCCC1 | 3.9 (≈ 1.21 µg/mL)
COc1ccc(-n2ncc3c(N4CCNCC4)nc(C4CC4)nc32)cc1 | 5.6 (≈ 1.96 µg/mL)
Cc1nnc(NCc2ccccc2)c2ccccc12 | 4.4 (≈ 1.1 µg/mL)
CCCc1cc(=O)[nH]c(-n2nc(C)cc2NC(=O)C(CC)c2ccccc2)n1 (stereo not drawn) | 2.7 (≈ 1.02 µg/mL)
O=S(=O)(c1ccc(Cl)cc1)N1CCC(n2nnc3cc(C(F)(F)F)ccc32)CC1 | 7.8 (≈ 3.47 µg/mL)
COc1cccc(C(=O)N(Cc2cccnc2)Cc2cc3c(C)cc(C)cc3nc2Cl)c1 | 3.1 (≈ 1.38 µg/mL)
O=C(C1CCN(c2nnc(-n3cccc3)s2)CC1)N1CCC(Cc2ccccc2)CC1 | 3.4 (≈ 1.48 µg/mL)
COc1ccc(Cc2nn3c(-c4ccc(C)cc4)nnc3s2)cc1 | 7.5 (≈ 2.52 µg/mL)
O=C(Nc1nnc(-c2ccc(F)cc2)o1)c1ccc(Cl)cc1 | 6.9 (≈ 2.19 µg/mL)
CN(Cc1ccccc1)c1ncc(-c2ccc(CNCC3CCCO3)cc2)cn1 (stereo not drawn) | 8.7 (≈ 3.38 µg/mL)
Cc1nn(CC(C)C)c2sc(C(=O)Nc3nc(-c4ccccn4)cs3)cc12 | 3.7 (≈ 1.47 µg/mL)
O=C(CCc1cc2ccccc2o1)NNC(=O)c1cccs1 | 5.1 (≈ 1.6 µg/mL)
CN(C)c1ccc(NC(=O)Nc2cnsn2)cc1 | 3.2 (≈ 0.843 µg/mL)
COc1cccc(CNc2nc(C)cc(-c3cccc(CN(C)C)c3)n2)c1 | 7 (≈ 2.54 µg/mL)
COc1ccc(-c2ccc(Nc3cccc(S(=O)(=O)CCN(C)Cc4cccs4)c3)nc2)cn1 | 7.9 (≈ 3.91 µg/mL)
CN1CCc2c(cccc2NC(=O)c2cc(Br)cc3c2OCC3)C1 | 9.8 (≈ 3.8 µg/mL)
COc1ccc(CCNc2nccc(-c3cccc(OC4CCNCC4)c3)n2)cc1 | 4.4 (≈ 1.78 µg/mL)
CCc1nnc(NC(=O)c2cccc(C(=O)Nc3nnc(CC)s3)n2)s1 | 1.5 (≈ 0.584 µg/mL)
NC1CCCN(c2ncnc(-c3ccc4c(c3)CCC4)n2)C1 (stereo not drawn) | 9.3 (≈ 2.75 µg/mL)
O=C(COc1ccc(-c2ccccc2)cc1)NNC(=O)c1ccco1 | 2.5 (≈ 0.841 µg/mL)
